One experiment concerns the target Mu-type opioid receptor (Bos taurus, UniProt P79350). Put plainly: Compound was tested for binding activity against mu opioid receptor in bovine striatal membranes using 0.25 nM [3H]DAMGO as the radioligand. Type of experiment: cell membranes, Striatum, Membrane.
For the next experiment, the system named is Mus musculus. Put plainly: Compound was tested for its activity using mouse writhing assay after icv administration. The class given is functional. (Writhing tests count abdominal constrictions after an irritant is injected.)
Another experiment concerns the target D(1A) dopamine receptor (Rattus norvegicus, UniProt P18901). Put plainly: Compound was tested for binding affinity against Dopamine receptor D1 using 1 nM [3H]SCH-23390 as the radioligand.
A further experiment has as its target D(2) dopamine receptor (Rattus norvegicus, UniProt P61169). Kind of experiment: Compound was tested for binding affinity against Dopamine receptor D2 using 10 nM [3H]N-methyl-spiperone as the radioligand.

Broadly, the IC50 is the concentration at which inhibition is half-maximal. Low readings indicate greater potency, high ones weaker potency.

D(2) dopamine receptor, sequence (P61169 whole entry): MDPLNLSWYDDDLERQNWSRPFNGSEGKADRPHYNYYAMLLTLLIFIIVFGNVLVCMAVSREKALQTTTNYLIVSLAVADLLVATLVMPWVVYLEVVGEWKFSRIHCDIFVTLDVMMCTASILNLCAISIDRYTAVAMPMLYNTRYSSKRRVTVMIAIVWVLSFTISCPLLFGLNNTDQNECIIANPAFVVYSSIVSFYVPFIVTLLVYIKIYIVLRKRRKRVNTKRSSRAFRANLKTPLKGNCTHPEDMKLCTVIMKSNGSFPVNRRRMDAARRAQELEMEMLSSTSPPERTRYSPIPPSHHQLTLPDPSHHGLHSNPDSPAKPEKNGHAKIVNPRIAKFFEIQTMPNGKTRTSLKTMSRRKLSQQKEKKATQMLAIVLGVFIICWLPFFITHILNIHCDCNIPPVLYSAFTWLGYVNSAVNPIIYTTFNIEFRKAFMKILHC
D(1A) dopamine receptor, sequence (P18901 whole entry): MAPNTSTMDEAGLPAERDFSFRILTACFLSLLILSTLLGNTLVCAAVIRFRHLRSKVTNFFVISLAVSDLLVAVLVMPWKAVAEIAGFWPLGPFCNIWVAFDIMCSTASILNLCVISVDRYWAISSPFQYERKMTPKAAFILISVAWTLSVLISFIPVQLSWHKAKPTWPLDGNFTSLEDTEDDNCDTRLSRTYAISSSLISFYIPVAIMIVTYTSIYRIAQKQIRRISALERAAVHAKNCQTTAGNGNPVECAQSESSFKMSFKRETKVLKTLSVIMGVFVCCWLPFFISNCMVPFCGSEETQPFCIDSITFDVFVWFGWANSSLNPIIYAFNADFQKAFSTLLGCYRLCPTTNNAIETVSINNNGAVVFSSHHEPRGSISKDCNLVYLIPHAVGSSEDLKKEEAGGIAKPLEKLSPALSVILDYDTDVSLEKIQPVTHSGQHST
Mu-type opioid receptor, sequence (P79350 whole entry): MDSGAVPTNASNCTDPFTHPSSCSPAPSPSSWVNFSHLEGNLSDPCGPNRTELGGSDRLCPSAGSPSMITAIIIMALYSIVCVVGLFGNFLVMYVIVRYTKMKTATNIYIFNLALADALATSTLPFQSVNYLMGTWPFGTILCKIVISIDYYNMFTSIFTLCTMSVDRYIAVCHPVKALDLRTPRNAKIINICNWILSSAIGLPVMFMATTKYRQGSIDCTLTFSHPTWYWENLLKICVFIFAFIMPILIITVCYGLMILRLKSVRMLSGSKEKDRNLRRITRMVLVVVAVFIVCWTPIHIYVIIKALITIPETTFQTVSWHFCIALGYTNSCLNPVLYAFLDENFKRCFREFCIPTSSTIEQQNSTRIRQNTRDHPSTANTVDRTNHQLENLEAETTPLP

For the molecule `O=C(CSSCC(=O)N[C@@]12CCC(=O)[C@@H]3Oc4c(O)ccc5c4[C@@]31CCN(CC1CCC1)[C@@H]2C5)N[C@@]12CCC(=O)[C@@H]3Oc4c(O)ccc5c4[C@@]31CCN(CC1CCC1)[C@@H]2C5`, on Mu-type opioid receptor, the IC50 worked out at 1.95 nM. Also, the D50 in the experiment with Mus musculus is 0.08 nM.

For the molecule `CN1CCc2cc(Cl)c(O)cc2C(c2cccc(N=C=S)c2)C1` (centres undefined), the figures for the IC50 at D(1A) dopamine receptor and on D(2) dopamine receptor were 2.13 nM and 978 nM, respectively.
